# Experimental data as given in patent US9499535B2, “Kinase inhibitors” (ORIGENIS GMBH, priority 2011, dated 2016).
# Target: T1, SYK kinase (Homo sapiens, UniProt P43405)
# T1 construct: purchased Invitrogen, Carlsbad
# Test: SYK assay (OMNIA Kinase Assay, Invitrogen)
# Assay type: biochemical
# Conditions: apparent Ki calculated from the IC50 using the Cheng-Prusoff equation; 1 mM ATP, 10 μM Peptide Substrate; read-out: SYK Activities: Ki
# Procedure: In the assay OMNIA® KINASE ASSAY by Invitrogen Corporation (Carlsbad) the effect of invention of a compound on the phosphorylation is determined by measurement of fluorescence intensity of a chelation-enhanced fluorophore called SOX. Upon phosphorylation of the peptide by the kinase of interest, Mg2+ is chelated to form a bridge between the SOX moiety and the phosphate group that is transferred to the specific tyrosine on the peptide. The fluorescence intensity is directly proportional to the amount of peptide phosphorylation.
# To the wells of an 384 well small volume plate (Greiner, Frickenhausen) are added (i) the compound under test in 5% DMSO/distilled water (2 μl), (ii) 16 μl of the master mix containing ATP, DTT, Kinase Reaction Buffer, Omina Peptide Substrate Tyr 7 resulting in a final concentration of 1 mM ATP, 0.2 mM DTT and 10 μM Peptide Substrate.
# The Master Mix and the assay plate was incubated to reaction temperature before the measurement (30° C.). The reaction was started with addition of (iii) 2 μl 4 μg/ml SYK kinase (Invitrogen, Carlsbad). During measurement fluorescence intensitiy readings were collected using a TECAN M1000 at a wavelength of λex 360/λem 485 nm every 30 s for 30 minutes. The reaction velocity was plotted versus the inhibitor concentration to determine the IC50 using XLFit 5.0 (IDBS, Guildford) to fit to a sigmoidal dose response curve, and the apparent Ki values were calculated from the IC50 using the Cheng-Prusoff equation (Cheng, Y.; Prusoff, W. H. Biochem. Pharmacol. 22, 3099-3108, 1973).
row,Ki [nM],Compound
1,100 to 1000,"FC(F)(F)c1cccc(Nc2nc3ccccc3c3c[nH]nc23)c1 [Example #2, (2H-Pyrazolo[3,4-c]quinolin-4-yl)-(3-trifluoromethyl-phenyl)-amine]"
2,100 to 1000,"c1ccc2c(c1)nc(Nc1ccc3[nH]ncc3c1)c1n[nH]cc12 [Example #4, (1H-Indazol-5-yl)-(2H-pyrazolo[3,4-c]quinolin-4-yl)-amine]"
3,10 to 100,"COc1ccc2nc(Nc3cc(C)c4[nH]ncc4c3)c3n[nH]cc3c2c1 [Example #10, (8-Methoxy-2H-pyrazolo[3,4-c]quinolin-4-yl)-(7-methyl-1H-indazol-5-yl)-amine]"
4,100 to 1000,"c1ccc2c(c1)nc(Nc1ccc3c(c1)OCO3)c1n[nH]cc12 [Example #22, Benzo[1,3]dioxol-5-yl-(2H-pyrazolo[3,4-c]quinolin-4-yl)-amine]"
5,100 to 1000,"Cn1ncc2ccc(Nc3nc4ccccc4c4c[nH]nc34)cc21 [Example #24, (1-Methyl-1H-indazol-6-yl)-(2H-pyrazolo[3,4-c]quinolin-4-yl)-amine]"
6,100 to 1000,"COc1ccc(Nc2nc3ccccc3c3c[nH]nc23)cn1 [Example #25, (6-Methoxy-pyridin-3-yl)-(2H-pyrazolo[3,4-c]quinolin-4-yl)-amine]"
7,100 to 1000,"CN1CCN(c2ccc(Nc3nc4ccccc4c4c[nH]nc34)cc2)CC1 [Example #26, [4-(4-Methyl-piperazin-1-yl)-phenyl]-(2H-pyrazolo[3,4-c]quinolin-4-yl)-amine]"
8,100 to 1000,"CN1CCCN(c2ccc(Nc3nc4ccccc4c4c[nH]nc34)cc2)CC1 [Example #27, [4-(4-Methyl-[1,4]diazepan-1-yl)-phenyl]-(2H-pyrazolo[3,4-c]quinolin-4-yl)-amine]"
9,100 to 1000,"c1ccc(Nc2nc3ccccc3c3cn[nH]c23)nc1 [Example #28, (3H-Pyrazolo[3,4-c]quinolin-4-yl)-pyridin-2-yl-amine]"
10,100 to 1000,"c1ccc2cc(Nc3nc4ccccc4c4cn[nH]c34)ncc2c1 [Example #30, Isoquinolin-3-yl-(3H-pyrazolo[3,4-c]quinolin-4-yl)-amine]"
11,100 to 1000,"COc1ccc2nc(Nc3ccc4[nH]ncc4c3)c3n[nH]cc3c2n1 [Example #90, (1H-Indazol-5-yl)-(8-methoxy-2H-2,3,5,9-tetraaza-cyclopenta[a]naphthalen-4-yl)-amine]"
12,100 to 1000,"Brc1ccc2nc(Nc3ccc4[nH]ccc4c3)c3n[nH]cc3c2c1 [Example #99, (8-Bromo-2H-pyrazolo[3,4-c]quinolin-4-yl)-(1H-indol-5-yl)-amine]"
13,100 to 1000,"COc1ccc2nc(Nc3nnc(C4CC4)[nH]3)c3n[nH]cc3c2c1 [Example #141, (5-Cyclopropyl-4H-[1,2,4]triazol-3-yl)-(8-methoxy-2H-pyrazolo[3,4-c]quinolin-4-yl)-amine]"
14,100 to 1000,"COc1ccc2nc(Nc3ccc4c(c3)COCO4)c3n[nH]cc3c2c1 [Example #146, (4H-Benzo[1,3]dioxin-6-yl)-(8-methoxy-2H-pyrazolo[3,4-c]quinolin-4-yl)-amine]"
15,100 to 1000,"COc1ccc2nc(Nc3cc(C)ccn3)c3n[nH]cc3c2c1 [Example #154, (8-Methoxy-2H-pyrazolo[3,4-c]quinolin-4-yl)-(4-methyl-pyridin-2-yl)-amine]"
16,100 to 1000,"COc1ccc2nc(Nc3nc(C)cs3)c3n[nH]cc3c2c1 [Example #157, (8-Methoxy-2H-pyrazolo[3,4-c]quinolin-4-yl)-(4-methyl-thiazol-2-yl)-amine]"
17,100 to 1000,"COc1ccc2nc(Nc3nc4c(s3)CCCC4)c3n[nH]cc3c2c1 [Example #158, (8-Methoxy-2H-pyrazolo[3,4-c]quinolin-4-yl)-(4,5,6,7-tetrahydro-benzothiazol-2-yl)-amine]"
18,10 to 100,"COc1ccc2c(c1)nc(Nc1ccc(N3CCN(C)CC3)cc1)c1n[nH]cc12 [Example #176, (7-Methoxy-2H-pyrazolo[3,4-c]quinolin-4-yl)-[4-(4-methyl-piperazin-1-yl)-phenyl]-amine]"
19,100 to 1000,"COc1ccc2nc(Nc3ccc(Cc4ccccc4)cc3)c3n[nH]cc3c2c1 [Example #190, (4-Benzyl-phenyl)-(8-methoxy-2H-pyrazolo[3,4-c]quinolin-4-yl)-amine]"
20,< 10,"N#Cc1ccc2nc(Nc3ccc4cn[nH]c4c3)c3n[nH]cc3c2c1 [Example #197, 4-(1H-Indazol-6-ylamino)-2H-pyrazolo[3,4-c]quinoline-8-carbonitrile]"
21,100 to 1000,"COc1ccc(Nc2nc3ccccc3c3c(C(F)(F)F)[nH]nc23)cc1OC [Example #210, (3,4-Dimethoxy-phenyl)-(1-trifluoromethyl-2H-pyrazolo[3,4-c]quinolin-4-yl)-amine]"

# More lines, now with the values behind:
row,Compound,Ki [nM]
1,"c1ccc(Nc2nc3ccccc3c3c[nH]nc23)cc1 [Example #5, Phenyl-(2H-pyrazolo[3,4-c]quinolin-4-yl)-amine]",100 to 1000
2,"c1ccc2c(c1)nc(Nc1ccc3cn[nH]c3c1)c1n[nH]cc12 [Example #6, (1H-Indazol-6-yl)-(2H-pyrazolo[3,4-c]quinolin-4-yl)-amine]",10 to 100
3,"Cc1cc(Nc2nc3ccccc3c3c[nH]nc23)cc2cn[nH]c12 [Example #8, (7-Methyl-1H-indazol-5-yl)-(2H-pyrazolo[3,4-c]quinolin-4-yl)-amine]",100 to 1000
4,"c1ccc2c(c1)nc(Nc1ccc3[nH]cnc3c1)c1n[nH]cc12 [Example #17, (1H-Benzoimidazol-5-yl)-(2H-pyrazolo[3,4-c]quinolin-4-yl)-amine]",100 to 1000
5,"c1cncc(Nc2nc3ccccc3c3cn[nH]c23)c1 [Example #23, (3H-Pyrazolo[3,4-c]quinolin-4-yl)-pyridin-3-yl-amine]",100 to 1000
6,"Cn1ncc2ccc(Nc3nc4ccc(Br)cc4c4c[nH]nc34)cc21 [Example #35, (8-Bromo-2H-pyrazolo[3,4-c]quinolin-4-yl)-(1-methyl-1H-indazol-6-yl)-amine]",100 to 1000
7,"COc1cccc(Nc2nc3ccc(OC)cc3c3c[nH]nc23)c1 [Example #60, (3-Methoxy-phenyl)-(8-methoxy-2H-pyrazolo[3,4-c]quinolin-4-yl)-amine]",10 to 100
8,"COc1ccc2nc(Nc3ccc4[nH]ccc4c3)c3[nH]ncc3c2c1 [Example #72, (1H-Indol-5-yl)-(8-methoxy-3H-pyrazolo[3,4-c]quinolin-4-yl)-amine]",100 to 1000
9,"COc1ccc2nc(Nc3ccc4cc[nH]c4c3)c3[nH]ncc3c2c1 [Example #75, (1H-Indol-6-yl)-(8-methoxy-3H-pyrazolo[3,4-c]quinolin-4-yl)-amine]",100 to 1000
10,"COc1ccc2nc(Nc3cccc(N(C)C)c3)c3n[nH]cc3c2c1 [Example #76, N-(8-Methoxy-2H-pyrazolo[3,4-c]quinolin-4-yl)-N′,N′-dimethyl-benzene-1,3-diamine]",100 to 1000
11,"COc1ccc2nc(Nc3ccc(N4CCCC4)cc3)c3n[nH]cc3c2c1 [Example #79, (8-Methoxy-2H-pyrazolo[3,4-c]quinolin-4-yl)-(4-pyrrolidin-1-yl-phenyl)-amine]",100 to 1000
12,"c1ccc2c(c1)nc(Nc1ccc3[nH]ccc3c1)c1n[nH]cc12 [Example #82, (1H-Indol-5-yl)-(2H-pyrazolo[3,4-c]quinolin-4-yl)-amine]",100 to 1000
13,"Brc1ccc2nc(Nc3ccc(N4CCCCC4)cc3)c3n[nH]cc3c2c1 [Example #83, (8-Bromo-2H-pyrazolo[3,4-c]quinolin-4-yl)-(4-piperidin-1-yl-phenyl)-amine]",100 to 1000
14,"c1cc2c(cn1)nc(Nc1ccc3cn[nH]c3c1)c1n[nH]cc12 [Example #91, (1H-Indazol-6-yl)-(2H-2,3,5,7-tetraaza-cyclopenta[a]naphthalen-4-yl)-amine]",10 to 100
15,"COc1ccc2nc(Nc3ccc4c(O)ncnc4c3)c3[nH]ncc3c2c1 [Example #110, 7-(8-Methoxy-3H-pyrazolo[3,4-c]quinolin-4-ylamino)-quinazolin-4-ol]",100 to 1000
16,"COc1ccc(Nc2nc3cccnc3c3c[nH]nc23)cc1OC [Example #123, (3,4-Dimethoxy-phenyl)-(2H-2,3,5,9-tetraaza-cyclopenta[a]naphthalen-4-yl)-amine]",10 to 100
17,"COc1ccc2nc(Nc3cc(C)cc(C)n3)c3n[nH]cc3c2c1 [Example #156, (4,6-Dimethyl-pyridin-2-yl)-(8-methoxy-2H-pyrazolo[3,4-c]quinolin-4-yl)-amine]",100 to 1000
18,"COc1ccc2nc(Nc3ccc(Oc4ccccc4)cc3)c3n[nH]cc3c2c1 [Example #159, (8-Methoxy-2H-pyrazolo[3,4-c]quinolin-4-yl)-(4-phenoxy-phenyl)-amine]",10 to 100
19,"COc1ccc2nc(Nc3ccc(N(C)C)c(C)c3)c3n[nH]cc3c2c1 [Example #178, N4-(8-Methoxy-2H-pyrazolo[3,4-c]quinolin-4-yl)-2,N1,N1-trimethyl-benzene-1,4-diamine]",10 to 100
20,"COc1ccc2nc(Nc3ccc4c(c3)NC(=O)CN4)c3n[nH]cc3c2c1 [Example #182, 7-(8-Methoxy-2H-pyrazolo[3,4-c]quinolin-4-ylamino)-3,4-dihydro-1H-quinoxalin-2-one]",10 to 100
21,"COc1ccc2nc(Nc3ccc(N4CCOCC4)cc3C)c3n[nH]cc3c2c1 [Example #191, (8-Methoxy-2H-pyrazolo[3,4-c]quinolin-4-yl)-(2-methyl-4-morpholin-4-yl-phenyl)-amine]",100 to 1000
